Source: patent US9969696B2, “Compounds as inhibitor of DNA double-strand break repair, methods and applications thereof” (INDIAN INSTITUTE OF SCIENCE, priority 2012, dated 2018)

Experiments:
[1] = Solubility (characterisation data)
DNA end joining (NHEJ) = assay: NHEJ assay, cell-free extracts prepared from rat testes; assay type: biochemical; settings: cell-free repair system from rat testes; compatible, noncompatible, blunt ends
Procedure: ATP end-labeled oligomeric DNA substrate (75 bp) containing 4 nt overhangs at 5′ ends (about 2 h at 25° C.). In the case of vehicle control, DMSO is used. […] The reaction products are purified and resolved on about 8% denaturing polyacrylamide gel.
FIG. 2 depicts the NHEJ assay and study of joining efficiency. A. Schematic representation of NHEJ assay and substrates containing DSBs. B. Comparison of the effect of potential Ligase IV inhibitors on DNA end joining. The joined products are indicated. “M” represents [g-32 ? P] ATP end-labeled 50 by ladder. C. Quantification of the joining efficiency. […] “PSLU” is “photostimulated luminescence unit”. […] Products are resolved on 1% agarose gel and visualized. Ethidium bromide is used as a positive control for the intercalation assay.
The reaction products are resolved on 8% denaturing PAGE. “M” represents [γ-^32P]ATP end-labeled 50 by ladder. […] “M” is a 2 log DNA ladder.
A. Western blotting showing presence of Ligase IV/XRCC4 in eluted fractions. W is wash, 1 and 2 are different fractions. […] Concentrations of inhibitors used are indicated. For other details, FIG. 4 legend can be referred. C. […] Radiolabeled oligomeric DNA substrates containing 5′ compatible termini are then added to the reaction along with increasing concentrations of purified Ligase IV/XRCC4 complex (30, 60 and 120 fmol) and products are resolved on a PAGE. F. Bar diagram representing quantification of the complementation experiment performed on 5′-5′ and 5′-3′ noncomplementary ends. In all panels quantification of EJ based on 3 independent experiments is represented as mean±SEM.

SMILES	Solubility in dimethyl formamide (DMF), dimethyl sulfoxide (DMSO) [1]	Solubility in chloroform (CHCl3) [1]	Solubility in ethanol [1]	melting point	Inhibition of end joining (EJ) of various types of DSBs (DNA end joining (NHEJ))
Oc1nc(S)nc(/N=C/c2ccc(Cl)cc2)c1/N=C/c1ccc(Cl)cc1 [Compound 6, (5E,6E)-5,6-bis(4-chlorobenzylideneamino)-2-mercaptopyrimidin-4-ol]	soluble	Insoluble	Partially soluble	260 to 262 °C	
Cc1ccc(/C=N/c2nc(S)nc(O)c2/N=C/c2ccc(C)cc2)cc1 [Compound 7, (5E,6E)-5,6-bis(4-methylbenzylideneamino)-2-mercaptopyrimidin-4-ol]	soluble	Insoluble	Partially soluble	181 to 183 °C	
Oc1nc(S)nc2nc3[nH]c4ccccc4c3nc12 [Compound 8, 2-mercapto-10H-indolo[3,2-g]pteridin-4-ol]	soluble	Insoluble	Partially soluble	> 320 °C	
O=[N+]([O-])c1ccc(/C=N/c2nc(S)nc(O)c2/N=C/c2ccc([N+](=O)[O-])cc2)cc1 [Compound 9, (5E,6E)-5,6-bis(4-nitrobenzylideneamino)-2-mercaptopyrimidin-4-ol]	soluble	Insoluble	Partially soluble		
Oc1ccc(/C=N/c2nc(S)nc(O)c2/N=C/c2ccc(O)cc2)cc1 [Compound 12, (5E,6E)-5,6-bis(4-hydroxybenzylideneamino)-2-mercaptopyrimidin-4-ol]	soluble	Insoluble	Partially soluble		
[Na+].[O-]c1nc(S)nc(/N=C/c2ccccc2)c1/N=C/c1ccccc1 [Compound 15, Sodium 5,6-bis((E)-benzylideneamino)-2-mercaptopyrimidin-4-olate]					inhibits end joining (EJ) irrespective of type and configurations of DSB

Second part, led by results:

Solubility in dimethyl formamide (DMF), dimethyl sulfoxide (DMSO) [1]	Solubility in chloroform (CHCl3) [1]	Solubility in ethanol [1]	melting point	SMILES	Inhibition of end joining (EJ) of various types of DSBs (DNA end joining (NHEJ))
soluble	Insoluble	Partially soluble	> 300 °C	Nc1nc(S)nc(O)c1/N=C/c1ccc(Cl)cc1 [Compound 2, (E)-5-(4-chlorobenzylideneamino)-6-amino-2-mercaptopyrimidin-4-ol]	
soluble	Insoluble	Partially soluble	> 320 °C	Nc1nc(S)nc(O)c1/N=C/c1ccc([N+](=O)[O-])cc1 [Compound 3, (E)-5-(4-nitrobenzylideneamino)-6-amino-2-mercaptopyrimidin-4-ol]	
soluble	Insoluble	Partially soluble	> 320 °C	Nc1nc(S)nc(O)c1/N=C/c1ccc(O)cc1 [Compound 4, (E)-5-(4-hydroxybenzylideneamino)-6-amino-2-mercaptopyrimidin-4-ol]	
soluble	Insoluble	Partially soluble	315 °C	COc1cc(/C=N/c2c(N)nc(S)nc2O)cc(OC)c1OC [Compound 5, (E)-5-(3,4,5-trimethoxybenzylideneamino)-6-amino-2-mercaptopyrimidin-4-ol]	
soluble	Insoluble	Partially soluble		COc1ccc(/C=N/c2nc(S)nc(O)c2/N=C/c2ccc(OC)cc2)cc1 [Compound 10, (5E,6E)-5,6-bis(4-methoxybenzylideneamino)-2-mercaptopyrimidin-4-ol]	
soluble	Insoluble	Partially soluble		COc1cc(/C=N/c2nc(S)nc(O)c2/N=C/c2cc(OC)c(OC)c(OC)c2)cc(OC)c1OC [Compound 11, (5E,6E)-5,6-bis(3,4,5-trimethoxybenzylideneamino)-2-mercaptopyrimidin-4-ol]	
soluble	Insoluble	Partially soluble		Cc1ccc(/C=N/c2c(N)nc(S)nc2O)cc1 [Compound 13, (E)-5-(4-methylbenzylideneamino)-6-amino-2-mercaptopyrimidin-4-ol]	
soluble	Insoluble	Partially soluble		COc1ccc(/C=N/c2c(N)nc(S)nc2O)cc1 [Compound 14, (E)-5-(4-methoxybenzylideneamino)-6-amino-2-mercaptopyrimidin-4-ol]	
